Measurements published in patent publication US20240018119A1, “CARBOXAMIDE DERIVATIVE AND PHARMACEUTICAL COMPOSITION COMPRISING SAME AS ACTIVE INGREDIENT FOR PREVENTING OR TREATING MENTAL ILLNESS” (DAEGU-GYEONGBUK MEDICAL INNOVATION FOUNDATION, priority 2020, published 2024).

Experiments:
Assay type in all cases: cell-based
[1] = target: T1, serotonin transporter (Homo sapiens, UniProt P31645); assay: Serotonin reuptake inhibition in transporter-transfected HEK-293 cells ([3H]-5-HT); settings: for Triple reuptake inhibition (Ratio %) SERT: compound 1 μM, [3H]-5-HT, relative to control without compound (100%), lower = more inhibition; for IC50: concentration at which Ratio % is 50%, 6 concentrations 1 nM to 1 μM, read-out: Triple reuptake inhibition (IC50, μM) SERT
T1 construct: expressed in transfected cells; host or cells: HEK-293
T1 sequence (P31645 whole entry): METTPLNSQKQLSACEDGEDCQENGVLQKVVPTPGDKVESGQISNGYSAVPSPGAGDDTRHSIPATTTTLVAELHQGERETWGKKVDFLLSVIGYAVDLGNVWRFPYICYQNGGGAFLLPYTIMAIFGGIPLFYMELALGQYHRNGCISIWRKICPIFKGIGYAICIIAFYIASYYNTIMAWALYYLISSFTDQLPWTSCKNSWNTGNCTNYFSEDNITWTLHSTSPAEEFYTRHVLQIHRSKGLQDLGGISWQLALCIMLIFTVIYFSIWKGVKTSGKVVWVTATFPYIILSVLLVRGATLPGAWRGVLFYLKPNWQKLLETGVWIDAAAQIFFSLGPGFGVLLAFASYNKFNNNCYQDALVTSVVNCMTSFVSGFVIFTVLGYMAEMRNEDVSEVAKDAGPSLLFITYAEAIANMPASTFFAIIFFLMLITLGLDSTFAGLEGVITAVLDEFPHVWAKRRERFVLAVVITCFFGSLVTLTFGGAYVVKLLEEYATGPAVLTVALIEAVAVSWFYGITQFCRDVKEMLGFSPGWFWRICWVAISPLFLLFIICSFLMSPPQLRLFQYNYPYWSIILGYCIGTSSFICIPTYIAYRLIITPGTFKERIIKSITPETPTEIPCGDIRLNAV

[2] = target: T2, dopamine transporter (Homo sapiens, UniProt Q01959); assay: Dopamine reuptake inhibition in transporter-transfected HEK-293 cells ([3H]-DA); settings: for Triple reuptake inhibition (Ratio %) DAT: compound 1 μM, 20-30 nM [3H]-DA, relative to control without compound (100%), lower = more inhibition; for IC50: concentration at which Ratio % is 50%, 6 concentrations 1 nM to 1 μM, read-out: Triple reuptake inhibition (IC50, μM) DAT
T2 construct: expressed in transfected cells; host or cells: HEK-293
T2 sequence (Q01959 whole entry): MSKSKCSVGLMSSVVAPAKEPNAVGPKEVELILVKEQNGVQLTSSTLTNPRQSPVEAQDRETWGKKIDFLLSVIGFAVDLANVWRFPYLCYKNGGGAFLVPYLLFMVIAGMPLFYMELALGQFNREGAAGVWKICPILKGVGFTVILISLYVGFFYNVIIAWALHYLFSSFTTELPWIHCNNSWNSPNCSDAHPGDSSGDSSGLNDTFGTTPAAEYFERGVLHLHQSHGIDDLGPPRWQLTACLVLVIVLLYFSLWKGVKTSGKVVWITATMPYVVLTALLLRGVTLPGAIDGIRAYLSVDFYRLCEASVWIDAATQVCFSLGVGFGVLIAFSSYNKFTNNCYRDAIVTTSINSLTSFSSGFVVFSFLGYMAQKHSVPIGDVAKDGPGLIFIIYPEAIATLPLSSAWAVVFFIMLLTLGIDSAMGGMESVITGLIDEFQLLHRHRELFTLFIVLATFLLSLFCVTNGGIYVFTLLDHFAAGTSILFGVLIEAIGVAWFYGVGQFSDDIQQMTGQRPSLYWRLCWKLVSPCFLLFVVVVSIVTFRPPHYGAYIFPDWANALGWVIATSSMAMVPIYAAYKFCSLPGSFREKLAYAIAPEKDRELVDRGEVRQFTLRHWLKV
In short: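 HEK-293 cells transfected with human DAT cDNA; compound preincubated 15 min at 37 °C in uptake buffer, then buffer containing 20-30 nM [3H]-DA added for 5 min at 37 °C. After ice-cold washes and SDS lysis, radioactivity expressed as % of untreated control; IC50 from six concentrations (1 nM–1 μM).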

[3] = target: T3, norepinephrine transporter (Homo sapiens, UniProt P23975); assay: Norepinephrine reuptake inhibition in transporter-transfected HEK-293 cells ([3H]-NE); settings: for Triple reuptake inhibition (Ratio %) NET: compound 1 μM, [3H]-NE, relative to control without compound (100%), lower = more inhibition; for IC50: concentration at which Ratio % is 50%, 6 concentrations 1 nM to 1 μM, read-out: Triple reuptake inhibition (IC50, μM) NET
T3 construct: expressed in transfected cells; host or cells: HEK-293
T3 sequence (P23975 whole entry, species assumed): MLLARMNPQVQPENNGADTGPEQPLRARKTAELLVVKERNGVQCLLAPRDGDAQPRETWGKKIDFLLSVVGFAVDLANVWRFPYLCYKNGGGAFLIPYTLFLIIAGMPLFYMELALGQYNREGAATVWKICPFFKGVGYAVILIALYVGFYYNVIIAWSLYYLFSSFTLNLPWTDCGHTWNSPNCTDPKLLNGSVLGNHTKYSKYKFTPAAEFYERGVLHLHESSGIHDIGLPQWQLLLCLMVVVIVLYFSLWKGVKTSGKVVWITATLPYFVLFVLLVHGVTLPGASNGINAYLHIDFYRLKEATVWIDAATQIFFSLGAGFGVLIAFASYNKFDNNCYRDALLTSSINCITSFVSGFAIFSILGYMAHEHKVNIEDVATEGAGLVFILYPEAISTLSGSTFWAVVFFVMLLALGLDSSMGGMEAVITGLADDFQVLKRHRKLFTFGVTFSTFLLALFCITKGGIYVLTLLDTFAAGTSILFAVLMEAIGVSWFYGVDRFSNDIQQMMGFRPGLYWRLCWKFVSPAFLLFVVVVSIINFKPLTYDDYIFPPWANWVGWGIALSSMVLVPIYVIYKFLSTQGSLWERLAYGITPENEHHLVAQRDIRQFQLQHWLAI

| Structure (SMILES) | Triple reuptake inhibition (Ratio %) SERT [1] [%] | Triple reuptake inhibition (Ratio %) DAT [2] [%] | Triple reuptake inhibition (Ratio %) NET [3] [%] | IC50 [1] [µM] | IC50 [2] [µM] | IC50 [3] [µM] |
| --- | --- | --- | --- | --- | --- | --- |
| O=C(NCCN1CCC(Cc2ccccc2)CC1)[C@H]1Cc2ccccc2N1 [Example 58, (R)—N-(2-(4-benzylpiperidin-1-yl)ethyl)indolin-2-carboxamide] | 105.84 | 66.26 | 82.39 |  |  |  |
| O=C(NC1CCC(Cc2ccccc2)CC1)c1cc2ccccc2[nH]1 (stereo not drawn) [Example 44, N-(4-benzylcyclohexyl)-1H-indol-2-carboxamide] | 94.19 | 73.05 | 85.48 |  |  |  |
| O=C(NCCN1CCC(Cc2ccccc2)CC1)c1ccc(Cl)c(Cl)c1 [Example 18, N-(2-(4-benzylpiperidin-1-yl)ethyl)-3,4-dichlorobenzamide] | 47.45 | 68.93 | 67.88 |  |  |  |
| O=C(NCCN1CCN(c2cccc(C(F)(F)F)c2)CC1)c1cc2ccccc2[nH]1 [Example 21, N-(2-(4-(3-(trifluoromethyl)phenyl)piperazin-1-yl)ethyl)-1H-indol-2-carboxamide] | 86.98 | 94.30 | 97.95 |  |  |  |
| O=C(NCCN1CCC(Cc2ccc(F)c(F)c2)CC1)c1ccc2cc(Br)ccc2c1 [Example 6, 6-bromo-N-(2-(4-(3,4-difluorobenzyl)piperidin-1-yl)ethyl)-2-naphthamide] | 73.84 | 57.66 | 34.16 | 14 | 3.93 |  |
| O=C(NCCN1CCN(c2cccc(C(F)(F)F)c2)CC1)c1ccc(Cl)c(Cl)c1 [Example 12, 3,4-dichloro-N-(2-(4-(3-(trifluoromethyl)phenyl)piperazin-1-yl)ethyl)benzamide] | 93.46 | 103.97 | 94.42 |  |  |  |
| O=C(NCCNC(=O)c1cc2ccccc2[nH]1)c1ccc2ccccc2c1 [Example 45, N-(2-(2-naphthamido)ethyl)-1H-indol-2-carboxamide] | 91.05 | 110.91 | 102.98 |  |  |  |
| O=C(NCCN1CCCC(Cc2ccccc2)C1)c1cc2ccccc2[nH]1 (stereo not drawn) [Example 38, N-(2-(3-benzylpiperidin-1-yl)ethyl)-1H-indol-2-carboxamide] | 70.46 | 43.94 | 70.02 |  |  |  |
| O=C(NCCN1CCN(c2ccc(Cl)c(Cl)c2)CC1)c1cc2ccccc2[nH]1 [Example 24, N-(2-(4-(3,4-dichlorophenyl)piperazin-1-yl)ethyl)-1H-indol-2-carboxamide] | 59.92 | 43.28 | 107.75 | > 10 | 8.03 |  |
| CC(C)(CN1CCC(Cc2ccccc2)CC1)NC(=O)c1cc2ccccc2[nH]1 [Example 34, N-(1-(4-benzylpiperidin-1-yl)-2-methylpropan-2-yl)-1H-indol-2-carboxamide] | 90.64 | 55.54 | 70.66 |  |  |  |
| O=C(O)c1ccc2[nH]c(C(=O)NCCN3CCC(Cc4ccccc4)CC3)cc2c1 [Example 81, 2-((2-(4-benzylpiperidin-1-yl)-ethyl)carbamoyl)-1H-indol-5-carboxylic acid] | 87.86 | 70.22 | 95.95 |  |  |  |
| O=C(NCCN1CCN(c2cccc(Cl)c2Cl)CC1)c1cc2ccccc2[nH]1 [Example 23, N-(2-(4-(2,3-dichlorophenyl)piperazin-1-yl)ethyl)-1H-indol-2-carboxamide] | 85.13 | 70.42 | 99.59 |  |  |  |
| O=C(NCCN1CCN(Cc2ccc(F)c(F)c2)CC1)c1ccc2cc(Br)ccc2c1 [Example 7, 6-bromo-N-(2-(4-(3,4-difluorobenzyl)piperazin-1-yl)ethyl)-2-naphthamide] | 103.19 | 82.42 | 60.83 |  |  |  |
| CC(CN1CCC(Cc2ccccc2)CC1)NC(=O)c1cc2ccccc2[nH]1 (stereo not drawn) [Example 43, N-(1-(4-benzylpiperidin-1-yl)propan-2-yl)-1H-indol-2-carboxamide] | 81.76 | 30.29 | 56.98 |  |  |  |
| CC1(C(=O)NCCN2CCC(Cc3ccccc3)CC2)CC1 [Example 70, N-(2-(4-benzylpiperidine-1-yl)ethyl)-1-methylcyclopropanecarboxamide] | 102.65 | 107.49 | 116.85 |  |  |  |
| O=C(NCCN1CCN(Cc2ccc(F)c(F)c2)CC1)c1ccc(Cl)c(Cl)c1 [Example 16, 3,4-dichloro-N-(2-(4-(3,4-difluorobenzyl)piperazin-1-yl)ethyl)benzamide] | 113.34 | 85.54 | 82.44 |  |  |  |
| O=C(NCCN1CCN(Cc2ccccc2)CC1)c1cc2ccccc2[nH]1 [Example 25, N-(2-(4-benzylpiperazin-1-yl)ethyl)-1H-indol-2-carboxamide] | 97.46 | 76.50 | 76.45 |  |  |  |
| O=C(NCCN1CCN(c2cccc(Cl)c2Cl)CC1)c1ccc(Cl)c(Cl)c1 [Example 13, 3,4-dichloro-N-(2-(4-(2,3-dichlorophenyl)piperazin-1-yl)ethyl)benzamide] | 89.10 | 106.09 | 94.42 |  |  |  |
| COc1cc2cc(C(=O)NCCN3CCC(Cc4ccc(Cl)c(Cl)c4)CC3)[nH]c2cc1OC [Example 48] | 5.27 | 2.88 | 9.75 | 0.123 | 0.028 | 0.398 |
| O=C(NCCN1CCC(Cc2ccccc2)CC1)c1ccc[nH]1 [Example 75, N-(2-(4-benzylpiperidin-1-yl)ethyl)-1H-pyrrol-2-carboxamide] | 98.97 | 83.55 | 67.08 |  |  |  |
| O=C(NCCN1CCC(Cc2ccc(Cl)c(Cl)c2)CC1)c1cc(Cl)cc(Cl)c1 [Example 10, 3,5-dichloro-N-(2-(4-(3,4-dichlorobenzyl)piperidin-1-yl)ethyl)benzamide] | 37.57 | 44.72 | 76.85 |  | 4.29 | 14.3 |
| O=C(NCC(=O)N1CCC(Cc2ccccc2)CC1)c1cc2ccccc2[nH]1 [Example 50, N-(2-(4-benzylpiperidin-1-yl)-2-oxoethyl)-1H-indol-2-carboxamide] | 100.83 | 108.32 | 93.21 |  |  |  |
| O=C(NCCN1CCC(Cc2ccccc2)CC1)c1cc2cc(O)c(O)cc2[nH]1 [Example 63, N-(2-(4-benzylpiperidin-1-yl)ethyl)-5,6-dihydroxy-1H-indol-2-carboxamide] | 38.25 | 13.34 | 48.43 | 0.369 | 0.087 | 0.092 |
| O=C(NCCN1CCN(c2ccc(Cl)c(Cl)c2)CC1)c1ccc2cc(Br)ccc2c1 [Example 3, 6-bromo-N-(2-(4-(3,4-dichlorophenyl)piperazin-1-yl)ethyl)-2-naphthamide] | 77.91 | 104.38 | 110.56 |  |  |  |
